Results as given in the NIST ThermoML archive (doi:10.1021/je300610y).

Legend:
[1] = Crystal; for vapor or sublimation pressure: Transpiration method; for Normal melting temperature: DTA
[2] = Molar enthalpy of transition or fusion; settings: Crystal; DSC

Cc1ccc(NC2=NCCC3(CCCCC3)S2)cc1Cl
[1]
Settings | vapor or sublimation pressure [kPa]
385.15 K | 7.9e-06
386.15 K | 8.8e-06
387.15 K | 1.13e-05
388.15 K | 1.22e-05
389.15 K | 1.29e-05
391.15 K | 1.59e-05
393.15 K | 1.79e-05
395.15 K | 2.05e-05
396.15 K | 2.29e-05
397.15 K | 2.95e-05
399.15 K | 3.31e-05
401.15 K | 3.4e-05
402.15 K | 3.75e-05
404.15 K | 4.55e-05
405.7 K | 5.09e-05
406.4 K | 5.34e-05
407.3 K | 6.09e-05

Settings | Molar enthalpy of transition or fusion [kcal/mol] | Normal melting temperature [°C]
[1] | – | 149.2
[2] | 7.93 | –

c1ccc(NC2=NCCC3(CCCCC3)S2)cc1 [N-phenyl-1-thia-3-azaspiro[5.5]undec-2-en-2-amine]
[1]
Settings | vapor or sublimation pressure [kPa]
342.15 K | 6.9e-06
343.15 K | 8.2e-06
345.15 K | 1.01e-05
347.15 K | 1.32e-05
349.15 K | 1.47e-05
350.15 K | 1.8e-05
352.15 K | 2.39e-05
355.15 K | 3.14e-05
357.15 K | 4.42e-05
360.15 K | 6.22e-05
361.15 K | 6.34e-05
362.15 K | 9.1e-05
365.15 K | 0.0001035
367.15 K | 0.0001298
368.15 K | 0.0001351
369.15 K | 0.0001541

Settings | Molar enthalpy of transition or fusion [kcal/mol] | Normal melting temperature [°C]
[1] | – | 113.4
[2] | 5.16 | –

FC(F)(F)c1ccc(NC2=NCCC3(CCCCC3)S2)cc1
[1]
Settings | vapor or sublimation pressure [kPa]
384.15 K | 4.95e-05
385.15 K | 5.32e-05
386.15 K | 5.53e-05
387.15 K | 6.2e-05
389.15 K | 7.35e-05
390.15 K | 8.5e-05
392.15 K | 9.41e-05
393.15 K | 0.0001076
394.15 K | 0.0001185
395.15 K | 0.0001376
397.15 K | 0.0001497
398.15 K | 0.0001884
399.15 K | 0.0002215
401.15 K | 0.0002241
402.15 K | 0.0002762
403.15 K | 0.0002858

Settings | Molar enthalpy of transition or fusion [kcal/mol] | Normal melting temperature [°C]
[1] | – | 149.7
[2] | 7.86 | –

Brc1ccc(NC2=NCCC3(CCCCC3)S2)cc1 [N-(4-bromophenyl)-1-thia-3-azaspiro[5.5]undec-2-en-2-amine]
[1]
Settings | vapor or sublimation pressure [kPa]
374.15 K | 5.7e-06
375.15 K | 7.6e-06
378.15 K | 1.05e-05
380.15 K | 1.35e-05
385.15 K | 1.92e-05
388.15 K | 3.2e-05
391.15 K | 4.17e-05
393.15 K | 5.5e-05
395.15 K | 6.74e-05
397.15 K | 7.99e-05
399.15 K | 9.5e-05
401.15 K | 0.0001235
403.15 K | 0.0001454
405.15 K | 0.0001813
406.15 K | 0.0002145
409.15 K | 0.000277
411.15 K | 0.0003482

Settings | Molar enthalpy of transition or fusion [kcal/mol] | Normal melting temperature [°C]
[1] | – | 175.2
[2] | 10.6 | –

CCc1ccc(NC2=NCCC3(CCCCC3)S2)cc1 [N-(4-ethylphenyl)-1-thia-3-azaspiro[5.5]undec-2-en-2-amine]
[1]
Settings | vapor or sublimation pressure [kPa]
366.15 K | 3.45e-05
367.15 K | 4.16e-05
370.15 K | 5.31e-05
372.15 K | 7.08e-05
374.15 K | 8.22e-05
376.15 K | 0.0001151
377.15 K | 0.0001434
380.15 K | 0.0001583
382.15 K | 0.0002134
384.15 K | 0.0002567
386.15 K | 0.000327
387.15 K | 0.0003632
390.15 K | 0.0004631
392.15 K | 0.000642
394.15 K | 0.0007981

Settings | Molar enthalpy of transition or fusion [kcal/mol] | Normal melting temperature [°C]
[1] | – | 139.4
[2] | 10.2 | –

CC(C)c1ccc(NC2=NCCC3(CCCCC3)S2)cc1
[1]
Settings | vapor or sublimation pressure [kPa]
365.15 K | 1.98e-05
366.15 K | 2.34e-05
369.15 K | 3.21e-05
371.15 K | 3.7e-05
373.15 K | 4.74e-05
375.15 K | 5.94e-05
376.15 K | 7.14e-05
379.15 K | 8.3e-05
381.15 K | 0.0001048
383.15 K | 0.0001249
385.15 K | 0.0001533
386.15 K | 0.0001933
388.15 K | 0.0001988
390.15 K | 0.0002603
393.15 K | 0.0003364

Settings | Molar enthalpy of transition or fusion [kcal/mol] | Normal melting temperature [°C]
[1] | – | 139.6
[2] | 6.98 | –

Clc1ccc(NC2=NCCC3(CCCCC3)S2)cc1 [N-(4-chlorophenyl)-1-thia-3-azaspiro[5.5]undec-2-en-2-amine]
[1]
Settings | vapor or sublimation pressure [kPa]
370.15 K | 1.08e-05
372.15 K | 1.28e-05
373.15 K | 1.3e-05
376.15 K | 2e-05
377.15 K | 2.79e-05
380.15 K | 3.58e-05
383.15 K | 5.41e-05
384.15 K | 7.05e-05
387.15 K | 7.69e-05
389.15 K | 8.96e-05
391.15 K | 0.0001171
393.15 K | 0.0001487
395.15 K | 0.0001855
398.15 K | 0.0002176
400.15 K | 0.0002803
403.15 K | 0.0003898

Settings | Molar enthalpy of transition or fusion [kcal/mol] | Normal melting temperature [°C]
[1] | – | 162.6
[2] | 10 | –

Cc1ccc(NC2=NCCC3(CCCCC3)S2)cc1 [N-(4-methylphenyl)-1-thia-3-azaspiro[5.5]undec-2-en-2-amine]
[1]
Settings | vapor or sublimation pressure [kPa]
353.15 K | 9.4e-06
355.15 K | 1.29e-05
356.15 K | 1.58e-05
360.15 K | 2.24e-05
363.15 K | 3.02e-05
365.15 K | 3.66e-05
366.15 K | 4.54e-05
369.15 K | 6.73e-05
372.15 K | 9.76e-05
375.15 K | 0.0001314
376.15 K | 0.0001366
377.15 K | 0.0001547
378.15 K | 0.0001852
380.15 K | 0.0002336
384.15 K | 0.0003508

Settings | Molar enthalpy of transition or fusion [kcal/mol] | Normal melting temperature [°C]
[1] | – | 128.1
[2] | 7.1 | –
